According to patent US20090274773A1, “ANTIPROLIFERATIVE COMBINATION COMPRISING CYC-682 AND A CYTOTOXIC AGENT” (Cyclacel Limited, priority 2005, published 2009):
Where two headings read alike, the source gives them in different places.

Legend:
[1] = test system: panel of human cancer cell lines; assay: Antiproliferative effects as single agent in a panel of human cancer cell lines (MTT); type: cell-based
Method: The MTT assay was carried out as described previously (Hansen M B, Nielsen S E, Berg K. Re-examination and further development of a precise and rapid dye method for measuring cell growth/cell kill. J Immunol Methods. 1989 May 12; 119(2):203-10). In brief, cells were seeded in 96-well tissue culture plates at a density of 2×10^3 cells/well. Cell viability was determined after a 120-hour incubation, by the calorimetric conversion of yellow, water-soluble tetrazolium MTT (3-[4,5-dimethylthiazol-2-yl]-2,5-diphenyltetrazolium bromide; Sigma, Saint-Quentin Fallavier, France), into purple, water-insoluble formazan. This reaction is catalyzed by mitochondrial dehydrogenases and is used to estimate the relative number of viable cells (Mosmann, T, Rapid calorimetric assay for cellular growth and survival: application to proliferation and cytotoxicity assays. J Immunol Methods. 1983 Dec. 16; 65 (1-2):55-63). Cells were incubated with 0.4 mg/ml MTT for 4 hours at 37° C. After incubation, the supernatant was discarded, the cell pellet was resuspended in 0.1 ml of DMSO and the absorbance was measured at 560 nm using a microplate reader (Dynatech, Michigan). […]
The cells were seeded at 2×10^3 cells/well in 96-well plates and treated 24 hours later with increasing concentrations of CYC682. […] Growth inhibition was then determined by the MTT assay. […]

[2] = test system: IGROV1; assay: MTT growth inhibition assay, single agent; type: cell-based, human; conditions: Homo sapiens, read-out: Antiproliferative effects IC50s (MTT assay)
Method: (§1) All cell lines were obtained from the ATCC (Rockville, Md.). Cells were grown as monolayers in RPMI medium supplemented with 10% fetal calf serum (Invitrogen, Cergy-Pontoise, France), 2 mM glutamine, 100 units/ml penicillin and 100 μg/ml streptomycin. All cells were split twice a week using trypsin/EDTA (0.25% and 0.02%, respectively; Invitrogen, Cergy-Pontoise, France) and seeded at a concentration of 2.5×10^4 cells/ml. All cell lines were tested regularly for Mycoplasma contamination by PCR using a Stratagene kit (La Jolla, Calif.).
(§2) The MTT assay was carried out as described previously (Hansen M B, Nielsen S E, Berg K. Re-examination and further development of a precise and rapid dye method for measuring cell growth/cell kill. J Immunol Methods. 1989 May 12; 119(2):203-10). In brief, cells were seeded in 96-well tissue culture plates at a density of 2×10^3 cells/well. Cell viability was determined after a 120-hour incubation, by the calorimetric conversion of yellow, water-soluble tetrazolium MTT (3-[4,5-dimethylthiazol-2-yl]-2,5-diphenyltetrazolium bromide; Sigma, Saint-Quentin Fallavier, France), into purple, water-insoluble formazan. This reaction is catalyzed by mitochondrial dehydrogenases and is used to estimate the relative number of viable cells (Mosmann, T, Rapid calorimetric assay for cellular growth and survival: application to proliferation and cytotoxicity assays. J Immunol Methods. 1983 Dec. 16; 65 (1-2):55-63). Cells were incubated with 0.4 mg/ml MTT for 4 hours at 37° C. After incubation, the supernatant was discarded, the cell pellet was resuspended in 0.1 ml of DMSO and the absorbance was measured at 560 nm using a microplate reader (Dynatech, Michigan). Wells with untreated cells or with drug-containing medium without cells were used as positive and negative controls, respectively. Growth inhibition curves were plotted as a percentage of untreated control cells.
(§3) The cells were seeded at 2×10^3 cells/well in 96-well plates and treated 24 hours later with increasing concentrations of CYC682. After incubation times of 1 hour, 24 hours or 48 hours, the cells were washed and post-incubated in drug-free medium for 72 hours. Growth inhibition was then determined by the MTT assay.

[3] = test system: MDA-MB-435; assay: MTT growth inhibition assay, single agent; type: cell-based, human; conditions: Homo sapiens, read-out: Antiproliferative effects IC50s (MTT assay)
Method: as §1, §2, §3

[4] = test system: HOP92; assay: MTT growth inhibition assay, single agent; type: cell-based, human; conditions: Homo sapiens, read-out: Antiproliferative effects IC50s (MTT assay)
Method: as §1, §2, §3

[5] = test system: HT29; assay: MTT growth inhibition assay, single agent; type: cell-based, human; conditions: Homo sapiens, read-out: Antiproliferative effects IC50s (MTT assay)
Method: as §1, §2, §3

[6] = test system: HOP62; assay: MTT growth inhibition assay, single agent; type: cell-based, human; conditions: Homo sapiens, read-out: Antiproliferative effects IC50s (MTT assay)
Method: as §1, §2, §3

[7] = test system: MCF7; assay: MTT growth inhibition assay, single agent; type: cell-based, human; conditions: Homo sapiens, read-out: Antiproliferative effects IC50s (MTT assay)
Method: as §1, §2, §3

[8] = test system: HCT116; assay: MTT growth inhibition assay, single agent; type: cell-based, human; conditions: Homo sapiens, read-out: Antiproliferative effects IC50s (MTT assay)
Method: as §1, §2, §3

[9] = test system: OVCAR1; assay: MTT growth inhibition assay, single agent; type: cell-based, human; conditions: Homo sapiens, read-out: Antiproliferative effects IC50s (MTT assay)
Method: as §1, §2, §3

[10] = test system: HCC2998; assay: MTT growth inhibition assay, single agent; type: cell-based, human; conditions: Homo sapiens, read-out: Antiproliferative effects IC50s (MTT assay)
Method: as §1, §2, §3

[11] = test system: COLO205; assay: MTT growth inhibition assay, single agent; type: cell-based, human; conditions: Homo sapiens, read-out: Antiproliferative effects IC50s (MTT assay)
Method: as §1, §2, §3

[12] = phase I, patients with a variety of cancers; cited from earlier work
[13] = test system: colon cancer; conditions: cited from earlier work
[14] = test system: NSCLC cell line H1299; assay: CNDAC combinations (alamar blue, Calcusyn Combination Index); type: cell-based, human
Method: Experiments in the NSCLC cell lines H1299 or RERF-LC-MA were performed in 96-well plates, with cells seeded at a density of 3,000/well, in DMEM containing 10% (v/v) FCS. Stock solutions of all drugs were made up in dimethylsulfoxide (DMSO), with the exception of gemcitabine, which was dissolved in 0.9% (w/v) sterile saline solution.
For experimental assessment of potential synergistic interactions, the concomitant treatment regime involved simultaneous treatment of cells with CNDAC and the other agent under investigation for 72 h, alongside suitable controls of cells treated with the individual compounds alone for 72 hr. In the sequential treatment regimes, one drug was added to the cells 2 h after plating, and left for 24 h. Media was then aspirated, replaced with fresh media containing the second drug and incubated for 72 h. The two individual treatment controls for the sequential treatment regime involved substituting one of the drug treatments with drug-free media. […] Drug interactions were analysed using the Calcusyn software package (BioSoft, Cambridge, U.K.) described below.

[15] = test system: HCT116 cancer cell line; assay: CYC682 drug-combination study (MTT, Chou and Talalay combination index, isobolograms); type: cell-based, human; conditions: HCT116; named agent given prior to CYC682
Method: (§4) For simultaneous drug exposure, cells were seeded at 2×10^3 cells/well in 96-well plates and treated 24 hours later with increasing concentrations of CYC682 alone or with various concentrations of another drug corresponding to the IC20, IC40 or IC60 values. After approximately four doubling times (120 hours), the growth inhibitory effect was measured by the MTT assay.
(§5) Cells were seeded at 2×10^3 cells/well in 96-well plates and allowed to grow for 24 hour. Cells were then exposed to various concentrations of the first drug for 1 hour/24 hours/48 hours, the drug was removed, the cells were washed and the second drug was added. After additional drug exposure, the second drug was removed, the cells were washed and incubated in drug-free medium for 72 hours. Growth inhibition was then determined by the MTT assay.
(§6) Effects of drug combinations were evaluated using the Chou and Talalay method which is based on the median-effect principle (Chou T C, Talalay P. Quantitative analysis of dose-effect relationships: the combined effects of multiple drugs or enzyme inhibitors. Adv Enzyme Regul. 1984; 22:27-55). […] On the basis of the slope of the curve for each drug in a combination, it can be determined whether the drugs have mutually nonexclusive effects (e.g., independent or interactive modes of action).
(§7) The combination index (CI) is then determined by the equation:
(§8) CI=[(C)1/(Cx)1]+[(C)2/(Cx)2]+[α(C)1(C)2/(Cx)1(Cx)2],
(§9) where (Cx)1 is the concentration of drug 1 required to produce an x percent effect of that drug alone, and (C)1, the concentration of drug 1 required to produce the same x percent effect in combination with (C)2. If the mode of action of the drugs is mutually exclusive or nonexclusive, then α is 0 or 1, respectively. CI values will be calculated with this equation using different values of fa (i.e., for different degrees of cell growth inhibition). CI values of <1 indicate synergy, the value of 1 indicates additive effects, and values >1 indicate antagonism. Data were analyzed on an IBM-PC computer using concentration-effect analysis for microcomputer software (Biosoft, Cambridge, UK). For statistical analysis and graphs we will use Instat and Prism software (GraphPad, San Diego, USA). The dose-effect relationships for the drugs tested, alone or in paired combinations, were subjected to median-effect plot analysis to determine their relative potency (IC50), shape (m), and conformity (r) in each selected cell line. As stated above, the IC50 and m values were respectively used to calculate synergism and antagonism on the basis of the CI equation. Results were expressed as the mean±standard deviation of at least 3 experiments performed in duplicate. In each experiment, cells were exposed to the paired combinations for 48 hours as described above. Means and standard deviations were compared using Student's t-test (two-sided p value).
(§10) The effect of sequential and simultaneous exposure (FIG. 2) to CYC682 with oxaliplatin, doxorubicin, docetaxel and gemcitabine was studied in two sensitive colon cancer cell lines—COLO205 and HCT116 using combination indices that represent an affected fraction for the concentration of drugs corresponding to IC50 as previously described by Chou and Talalay.

[16] = test system: COLO205 cancer cell line; assay: as above; type: cell-based, human; conditions: COLO205; named agent given prior to CYC682
Method: as §4, §5, §6, §7, §8, §9, §10

[17] = named agent in combination with CNDAC, H1299, simultaneous treatment 72 h

## N#C[C@H]1[C@H](O)[C@@H](CO)O[C@H]1n1ccc(N)nc1=O [CNDAC, 1-(2-C-Cyano-2-deoxy-β-D-arabino-pentafuranosyl)-cytosine]
[1]; 24 hour exposure, panel of cell lines
  Cytotoxicity after 24 hour exposure: not sufficient
[2]; IGROV-1, 48 hours exposure
  IC50: 89 ± 12 µM
[3]; 48 hours exposure
  IC50: 95 ± 13 µM
[4]; HOP-92, 48 hours exposure
  IC50: 23 ± 6 µM
[5]; HT-29, 48 hours exposure
  IC50: 160 ± 43 µM
[6]; HOP-62, 48 hours exposure
  IC50: 7 ± 1.8 µM
[7]; 48 hours exposure
  IC50: 850 ± 60 µM
[8]; HCT-116, 48 hours exposure
  IC50: 2.8 ± 0.6 µM
[9]; 48 hours exposure
  IC50: > 900 µM
[10]; HCC 2998, 48 hours exposure
  IC50: 110 ± 21 µM
[11]; COLO 205, 48 hours exposure
  IC50: 8 ± 2 µM

## CCCCCCCCCCCCCCCC(=O)Nc1ccn([C@@H]2O[C@H](CO)[C@@H](O)[C@@H]2C#N)c(=O)n1 [CYC682, 2′-cyano-2′-deoxy-N^4-palmitoyl-1-β-D-arabinofuranosylcytosine]
[1]; most cancer cell lines
  Antiproliferative activity in panel: antiproliferative activity at micromolar concentrations
[12]
  Dose limiting toxicity: myelosuppression
  Tolerability in humans: well tolerated
[13]; in vivo
  Anticancer activity in a model of colon cancer: strong anticancer activity
[13]; same colon cancer model
  Increasing survival and preventing spread of colon cancer metastases to the liver, versus gemcitabine or 5-FU: superior
[2]; IGROV-1, 48 hours exposure
  IC50: 6.5 ± 1.6 µM
[3]; 48 hours exposure
  IC50: 67 ± 14 µM
[4]; HOP-92, 48 hours exposure
  IC50: 38 ± 8 µM
[5]; HT-29, 48 hours exposure
  IC50: 4.5 ± 0.7 µM
[6]; HOP-62, 48 hours exposure
  IC50: 6 ± 1.7 µM
[7]; 48 hours exposure
  IC50: 7 ± 1.8 µM
[8]; HCT-116, 48 hours exposure
  IC50: 3 ± 0.6 µM
[9]; 48 hours exposure
  IC50: 45 ± 7 µM
[10]; HCC 2998, 48 hours exposure
  IC50: 3.5 ± 0.8 µM
[11]; COLO 205, 48 hours exposure
  IC50: 5 ± 0.8 µM

## Nc1ccn([C@@H]2O[C@H](CO)[C@@H](O)C2(F)F)c(=O)n1 [Gemcitabine, 2′-deoxy-2′,2′-difluorocytidine]
[14]; H1299, concomitant treatment
  Interaction with CNDAC at ED50 (in words): synergy
[14]; combination with CNDAC, regime not specified
  Interaction with CNDAC (in words), summary of Table 3: synergistic drug interactions
[14]; [17]
  Combination Index at ED50, Concomitant: 0.65
  Combination Index at ED75, Concomitant: 1.83
  Combination Index at ED90, Concomitant: 6.11
[15]
  Interaction with CYC682 (isobologram): synergistic
[16]
  Interaction with CYC682 (isobologram): synergistic
[2]; IGROV-1, 24 hours exposure
  IC50: 0.02 ± 0.004 µM
[3]; 24 hours exposure
  IC50: 0.04 ± 0.008 µM
[4]; HOP-92, 24 hours exposure
  IC50: 0.02 ± 0.004 µM
[5]; HT-29, 24 hours exposure
  IC50: 0.015 ± 0.003 µM
[6]; HOP-62, 24 hours exposure
  IC50: 0.01 ± 0.002 µM
[7]; 24 hours exposure
  IC50: 0.01 ± 0.002 µM
[8]; HCT-116, 24 hours exposure
  IC50: 0.05 ± 0.01 µM
[9]; 24 hours exposure
  IC50: 1.2 ± 0.2 µM
[10]; HCC 2998, 24 hours exposure
  IC50: 0.01 ± 0.002 µM
[11]; COLO 205, 24 hours exposure
  IC50: 0.2 ± 0.1 µM
